Experiment: xn = mol fraction of the nth substance listed
Conditions: 101 kPa, Liquid, Direct current cell with electrodes

CCN(CC)CCO.Cl [2-(diethylamino)ethanol hydrochloride] + OCC(O)CO
electrical conductivity [S/m]
Conditions	x1 = 0.2	x1 = 0.25	x1 = 0.34
298.15 K	0.0487	0.0602	0.075
303.15 K	0.078	0.0958	0.118
308.15 K	0.11	0.104	0.164
313.15 K	0.139	0.156	0.207
318.15 K	0.188	0.211	0.2716
323.15 K	0.2357	0.264	0.3381
328.15 K	0.2716	0.3426	0.3903
333.15 K	0.3246	0.4086	0.4878
338.15 K	0.3962	0.4916	0.5754
343.15 K	0.4646	0.5748	0.6521
348.15 K	0.5335	0.6474	0.7754
353.15 K	0.6095	0.71	0.9109

CCN(CC)CCO.Cl [2-(diethylamino)ethanol hydrochloride] + OCCO
electrical conductivity [S/m]
Conditions	x1 = 0.2	x1 = 0.25	x1 = 0.34
298.15 K	0.5661	0.543	0.512
303.15 K	0.6994	0.6878	0.6627
308.15 K	0.8245	0.8305	0.794
313.15 K	0.9699	0.9486	0.9283
318.15 K	1.158	1.134	1.095
323.15 K	1.341	1.315	1.254
328.15 K	1.509	1.477	1.433
333.15 K	1.714	1.666	1.616
338.15 K	1.875	1.839	1.778
343.15 K	2.029	1.99	1.942
348.15 K	2.226	2.192	2.135
353.15 K	2.405	2.367	2.31

C[N+](C)(C)CCO.[Cl-] [choline chloride] + OCC(O)CO
electrical conductivity [S/m]
Conditions	x1 = 0.25	x1 = 0.34	x1 = 0.5
298.15 K	0.1463	0.1749	0.1929
303.15 K	0.1553	0.1951	0.219
308.15 K	0.203	0.2549	0.3161
313.15 K	0.257	0.3004	0.368
318.15 K	0.3112	0.399	0.4603
323.15 K	0.3816	0.512	0.5864
328.15 K	0.4811	0.6046	0.6668
333.15 K	0.5757	0.7187	0.7805
338.15 K	0.6717	0.816	0.898
343.15 K	0.7805	0.8955	0.9863
348.15 K	0.9286	1.063	1.155
353.15 K	1.08	1.219	1.295

C[N+](C)(C)CCO.[Cl-] [choline chloride] + OCCO
electrical conductivity [S/m]
Conditions	x1 = 0.28	x1 = 0.34	x1 = 0.36
298.15 K	0.832	0.733	0.68
303.15 K	1.067	1.019	0.9138
308.15 K	1.207	1.141	1.086
313.15 K	1.413	1.355	1.294
318.15 K	1.656	1.589	1.479
323.15 K	1.798	1.718	1.633
328.15 K	2.126	2.023	1.839
333.15 K	2.425	2.299	2.01
338.15 K	2.515	2.42	2.177
343.15 K	2.627	2.56	2.347
348.15 K	2.78	2.707	2.475
353.15 K	2.869	2.8072	2.604

C[P+](c1ccccc1)(c1ccccc1)c1ccccc1.[Br-] [methyltriphenylphosphonium bromide] + OCC(O)CO
electrical conductivity [S/m]
Conditions	x1 = 0.2	x1 = 0.25	x1 = 0.34
298.15 K	0.0116	0.0103	0.0062
303.15 K	0.0198	0.0172	0.0124
308.15 K	0.037	0.0319	0.0186
313.15 K	0.041	0.0394	0.0277
318.15 K	0.0607	0.0549	0.0405
323.15 K	0.0816	0.0719	0.0496
328.15 K	0.0965	0.0927	0.0701
333.15 K	0.1233	0.1124	0.0858
338.15 K	0.1608	0.1487	0.116
343.15 K	0.1971	0.1778	0.1493
348.15 K	0.2874	0.2196	0.1811
353.15 K	0.3594	0.2599	0.2154

C[P+](c1ccccc1)(c1ccccc1)c1ccccc1.[Br-] [methyltriphenylphosphonium bromide] + OCCO
electrical conductivity [S/m]
Conditions	x1 = 0.16	x1 = 0.2	x1 = 0.25
298.15 K	0.194	0.156	0.109
303.15 K	0.257	0.219	0.16
308.15 K	0.3103	0.2649	0.1914
313.15 K	0.3845	0.3246	0.2502
318.15 K	0.4437	0.3858	0.2964
323.15 K	0.5072	0.4405	0.3265
328.15 K	0.6279	0.5395	0.4307
333.15 K	0.711	0.6221	0.5129
338.15 K	0.8169	0.7423	0.5797
343.15 K	0.9496	0.8192	0.6923
348.15 K	1.031	0.9074	0.7372
353.15 K	1.12	1.003	0.8114

Reference: the NIST ThermoML archive (doi:10.1016/j.fluid.2013.07.012)
